Key:
[1] = system: HCV replicon (BB7 sequence) in Huh-7-Clone A cells; assay: HCV replicon assay: ELISA of NS5A protein in replicon-containing cells (Inhibition of Viral RNA Replication); type: cell-based; details: Hepatitis C virus; ranges of EC50 in HCV replicon assay; read-out: Replicon
Summary of the method: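 EC50 taken from an 8-point serially diluted dose curve, with NS5A level as read-out: fixed cells probed with primary monoclonal and HRP-conjugated secondary, TMB developed 30 min, OD 650 nm. Compound exposure 72 h in Huh-7-Clone A replicon cells (BB7 sequence).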

[2] = target: T1, HCV NS5B (Hepatitis C virus genotype 1b, UniProt Q9WMX2); assay: Inhibition of viral RNA-dependent RNA polymerase (RdRp), in vitro biochemical assay; parameters: species or system HCV genotype 1b virus (BB7); details: HCV NS5B RdRp, BB7 genotype 1b; read-out: HCV pol-BB7 IC50
T1 construct: fusion protein, of which the carboxyl terminal 21 amino acids were removed to enhance its solubility; His tag (GSHHHHHH); made in house; host or cells: E. coli
Summary of the method: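 IC50 values are the concentrations that halve in vitro RNA synthesis by HCV NS5B polymerase. The enzyme was a C-terminally truncated (Δ21), His-tagged genotype 1b (BB7 consensus) protein purified from E. coli.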

| Compound | EC50 [1] [µM] | IC50 [2] [µM] |
| --- | --- | --- |
| CNC(=O)c1c(-c2ccc(F)cc2)oc2cc(NS(C)(=O)=O)c(OC)cc12 [Example 122, 2-(4-Fluoro-phenyl)-6-methanesulfonylamino-5-methoxy-benzofuran-3-carboxylic acid methylamide] | < 1 | ≤ 0.5 |
| CNC(=O)c1c(-c2ccc(F)cc2)oc2cc(NCC3CCCO3)c(OC(C)C)cc12 (centres unmarked) [Example 123, 2-(4-Fluoro-phenyl)-5-isopropoxy-6-[(tetrahydro-furan-2-ylmethyl)-amino]-benzofuran-3-carboxylic acid methylamide] | < 10 | ≤ 0.5 |
| CNC(=O)c1c(-c2ccc(F)cc2)oc2cc(N3CCOCC3)c(OCC3CC3)cc12 [Example 125, 5-Cyclopropylmethoxy-2-(4-fluoro-phenyl)-6-morpholin-4-yl-benzofuran-3-carboxylic acid methylamide] | < 1 | ≤ 0.5 |
| CNC(=O)c1c(-c2ccc(F)cc2)oc2cc(Cl)c(OC)cc12 [Example 126, 6-Chloro-2-(4-fluoro-phenyl)-5-methoxy-benzofuran-3-carboxylic acid methylamide] | < 1 | ≤ 0.5 |
| CCNC(=O)c1c(-c2ccccc2)oc2ccc(OC)cc12 [Example 130, 5-Methoxy-2-phenyl-benzofuran-3-carboxylic acid ethylamide] | < 10 | 5 to 30 |
| CNC(=O)c1c(-c2ccc(F)cc2)oc2cc(Nc3ccncc3)c(OC(C)C)cc12 [Example 131, 2-(4-Fluoro-phenyl)-5-isopropoxy-6-(pyridin-4-ylamino)-benzofuran-3-carboxylic acid methylamide] | < 30 | 0.5 to 5 |
| CNC(=O)c1c(-c2ccc(F)cc2)oc2cc(N3CCN(C)CC3)c(OC(C)C)cc12 [Example 132, 2-(4-Fluoro-phenyl)-5-isopropoxy-6-(4-methyl-piperazin-1-yl)-benzofuran-3-carboxylic acid methylamide] | > 30 | 5 to 30 |
| CNC(=O)c1c(-c2ccc(F)cc2)oc2cc(NS(=O)(=O)CCCCl)c(OC(C)C)cc12 [Example 133, 6-(3-Chloro-propane-1-sulfonylamino)-2-(4-fluoro-phenyl)-5-isopropoxy-benzofuran-3-carboxylic acid methylamide] | < 1 | 0.5 to 5 |
| CNC(=O)c1c(-c2ccc(F)cc2)oc2cc(N3CCCS3(=O)=O)c(OC(C)C)cc12 [Example 134, 6-(1,1-Dioxido-isothiazolidin-2-yl)-2-(4-fluoro-phenyl)-5-isopropoxy-benzofuran-3-carboxylic acid methylamide] | < 10 | 0.5 to 5 |
| CNC(=O)c1c(-c2ccc(F)cc2)oc2cc(N(C(C)C)S(C)(=O)=O)c(OC(C)C)cc12 [Example 136, 2-(4-Fluoro-phenyl)-5-isopropoxy-6-(isopropyl-methanesulfonyl-amino)-benzofuran-3-carboxylic acid methylamide] | < 1 | ≤ 0.5 |
| CNC(=O)c1c(-c2ccc(F)cc2)oc2cc(N(CC3CC3)S(C)(=O)=O)c(OC(C)C)cc12 [Example 137, 6-(Cyclopropylmethyl-methanesulfonyl-amino)-2-(4-fluoro-phenyl)-5-isopropoxy-benzofuran-3-carboxylic acid methylamide] | < 1 | ≤ 0.5 |
| CNC(=O)c1c(-c2ccc(F)cc2)oc2cc(N3CC(C)OC(C)C3)c(OC(C)C)cc12 (centres unmarked) [Example 138, 6-(2,6-Dimethyl-morpholin-4-yl)-2-(4-fluoro-phenyl)-5-isopropoxy-benzofuran-3-carboxylic acid methylamide] | < 10 | 0.5 to 5 |
| CNC(=O)c1c(-c2ccc(F)cc2)oc2cc(-c3nnn[nH]3)c(OC(C)C)cc12 [Example 139, 2-(4-Fluoro-phenyl)-5-isopropoxy-6-(1H-tetrazol-5-yl)-benzofuran-3-carboxylic acid methylamide] | > 30 | 0.5 to 5 |

Source: patent US7265152B2 (ViroPharma Incorporated, priority 2002, dated 2007)
